US20260258035A1, “FIVE-MEMBERED AND SIX-MEMBERED NITROGEN-CONTAINING COMPOUND, AND INTERMEDIATE, PREPARATION METHOD AND USE THEREOF” (HANGZHOU SYNRX THERAPEUTICS BIOMEDICAL TECHNOLOGY CO., LTD., priority 2022, published 2026)
Converted amounts (≈) assume the structure as drawn. Read-outs that look alike come from different tables or passages of the source.

Tests used:
[1] = Solubility assay (FaSSGF / FaSSIF); type: physicochemical; conditions: kinetic from dmso stock, 2 h at 25° C.
Protocol: 1). Preparation of Solutions:
The FaSSGF solution was prepared as follows: • a) preparation of FaSSGF buffer: dissolve 2.0 g of NaCl as the raw material in about 0.9 L of purified water; • b) adjustment of the pH of the buffer: adjust the pH of the buffer to 1.6 with 1N HCL, and replenish the buffer with purified water to the volume of 1 L; and • c) preparation of FaSSGF solution by addition of FaSSGF powder: add 0.06 g of the FaSSGF powder to about 0.5 L of the buffer, stir until the powder was completely dissolved, and make up for the volume (1 L) with the buffer.
The FaSSIF solution was prepared as follows: • a) preparation of FaSSIF buffer: dissolve 0.42 g of NaOH, 3.44 g of anhydrous NaH2PO4, and 6.19 g of NaCl as raw materials in about 0.9 L of purified water; • b) adjustment the pH of the buffer: adjust the pH of the buffer to 6.5 with 1 N NaOH or 1 N HCL, and replenish the buffer with purified water to the volume of 1 L; and • c) preparation of FaSSIF solution by addition of FaSSIF powder: add 2.24 g of the FaSSIF powder to about 0.5 L of the buffer, stir until the powder was completely dissolved, and make up for the volume (1 L) with the buffer.
2). Preparation of the Solution of Control Compound:
The control compound was weighed and dissolved in DMSO to 10 mM to obtain a stock solution.
3) Preparation of the Solution of Compound to be Tested:
The compound to be tested was formulated into a 10 mM DMSO stock solution.
4) Preparation of Internal Standard Solution:
a) The internal standard was weighed and dissolved in DMSO to 10 mM to obtain an internal standard stock solution (ISTD stock solution).
b) The internal standard stock solution was diluted to 500 nM (Tolbutamide) with an ACN:methano mixture (volume ratio: 1:1) to obtain a quenching solution.
a) The FaSSGF solution at pH 1.6 and the FaSSIF solution at pH 6.5 were pre-warmed; and then, the compound was injected into the buffer.
Once done, the samples were centrifuged at 12,000 rpm for 10 min, and the supernatant was transferred to a new tube. The supernatant was diluted 10-fold and 100-fold with the FaSSGF solution at pH 1.6 or the FaSSIIF solution at pH 6.5. 20 μL of each sample (1×, 10×, 100× and standard curve) was added to 500 μL of the IS solution. The resulting mixture was vortexed vigorously for 1 min and centrifuged at 4,500 rpm for 15 min at 4° C. 150 μL of the supernatant was transferred for LC-MS/MS sample analysis.

HCC1806 = experiment: Cell viability assay (CellTiter-Glo); type: cell-based, Human; conditions: HCC1806, 7 days, CellTiter-Glo, read-out: IC50 (nM) in cell viability assay
PARG = PARG (Homo sapiens, UniProt Q86W56); experiment: Biochemical assay (PARG, TFMU-ADPr substrate)
Chain of PARG (Q86W56 whole entry): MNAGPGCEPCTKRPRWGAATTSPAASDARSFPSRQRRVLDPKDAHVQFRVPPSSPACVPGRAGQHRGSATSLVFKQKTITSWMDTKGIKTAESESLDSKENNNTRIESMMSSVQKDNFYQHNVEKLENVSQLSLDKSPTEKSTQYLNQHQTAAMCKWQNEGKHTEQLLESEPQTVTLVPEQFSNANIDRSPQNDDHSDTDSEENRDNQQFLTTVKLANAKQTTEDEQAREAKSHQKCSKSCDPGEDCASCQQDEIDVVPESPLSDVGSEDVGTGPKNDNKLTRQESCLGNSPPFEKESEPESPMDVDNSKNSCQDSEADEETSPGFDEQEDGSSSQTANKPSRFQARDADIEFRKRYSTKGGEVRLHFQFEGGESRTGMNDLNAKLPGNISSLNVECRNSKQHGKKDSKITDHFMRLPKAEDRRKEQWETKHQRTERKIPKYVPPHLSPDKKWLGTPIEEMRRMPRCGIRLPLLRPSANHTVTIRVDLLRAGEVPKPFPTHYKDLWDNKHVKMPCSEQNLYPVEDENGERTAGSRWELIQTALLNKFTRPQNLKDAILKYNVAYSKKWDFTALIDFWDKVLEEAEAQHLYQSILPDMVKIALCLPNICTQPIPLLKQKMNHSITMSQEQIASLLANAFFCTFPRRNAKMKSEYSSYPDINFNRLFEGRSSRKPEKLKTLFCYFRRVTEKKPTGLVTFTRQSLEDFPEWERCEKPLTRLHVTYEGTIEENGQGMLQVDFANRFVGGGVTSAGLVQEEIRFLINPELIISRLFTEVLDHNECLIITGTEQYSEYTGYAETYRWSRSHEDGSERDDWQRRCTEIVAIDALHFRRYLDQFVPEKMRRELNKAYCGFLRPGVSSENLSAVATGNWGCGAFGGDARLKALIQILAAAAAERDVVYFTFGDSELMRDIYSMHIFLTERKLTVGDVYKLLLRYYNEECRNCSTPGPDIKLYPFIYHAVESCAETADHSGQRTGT

[2] = test system: Human breast squamous carcinoma cells HCC1806; experiment: Cell function assay (In-Cell Western, PAR/pADPr after MMS); type: cell-based; conditions: read-out: IC50 (nM) in cell function assay
Method in brief: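 HCC1806 cells adhered 24 h at 37 °C, 5% CO2, then were pretreated 1 h with compound (30000 nM down to 1 nM, plus 0 nM) or DMSO. MMS was then added at 0.5 mM final for 1 h before In-Cell Western detection of PAR/pADPr.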

[3] = fassgf or other biorelevant, FaSSGF solution pH 1.6, 100 μM from DMSO stock, read-out: FaSSGF solubility
[4] = FaSSIF solution pH 6.5, 100 μM from DMSO stock, read-out: FaSSIF solubility
[5] = HCC1806, In-Cell Western, MMS treatment
[6] = HCC1806, compound 1 h then 0.5 mM MMS 1 h, PAR/pADPr antibody, In-Cell Western
[7] = 4 nM PARG, 66.2 uM TFMU-ADPr, 3 min at room temperature

| SMILES | solubility at 2 h [1, 3] | solubility at 2 h [1, 4] | IC50 (HCC1806; Homo sapiens, HCC1806, 168 h) | IC50 (PARG; PARG, TFMU-ADPr substrate) | IC50 [2, 5] | IC50 [2, 6] | IC50 (HCC1806) | IC50 (PARG; [7]) |
| --- | --- | --- | --- | --- | --- | --- | --- | --- |
| CC(C)C(=O)N1CCN(c2cc(S(=O)(=O)NC3(C)COC3)cn3c(-c4nnc(C(F)F)s4)nc(Cl)c23)C[C@H]1C [Example 124, (R)-1-chloro-3-(5-(difluoromethyl)-1,3,4-thiadiazol-2-yl)-8-(4-isobutyryl-3-methylpiperazin-1-yl)-N-(3-methyloxetan-3-yl)imidazo[1,5-a]pyridine-6-sulfonamide] | 38.5 µM (≈ 23.3 µg/mL) | 88.2 µM (≈ 53.3 µg/mL) | 759 nM | 2.54 nM | – | – | – | – |
| CN(C)C(=O)N1CCN(c2cc(S(=O)(=O)NC3(C#N)CC3)cn3c(-c4nnc(C(F)(F)F)s4)ncc23)CC1 [Example 227, 4-(6-(N-(1-cyanocyclopropyl)sulfamoyl)-3-(5-(trifluoromethyl)-1,3,4-thiadiazol-2-yl)imidazo[1,5-a]pyridin-8-yl)-N,N-dimethylpiperazine-1-carboxamide] | 73.8 µM (≈ 42 µg/mL) | 82.4 µM (≈ 46.9 µg/mL) | 300 nM | 5.01 nM | – | – | – | – |
| CC1(O)CCN(c2cc(S(=O)(=O)NC3(CF)CC3)cn3c(-c4nnc(C(F)F)s4)nnc23)CC1 [Example 107, 3-(5-(difluoromethyl)-1,3,4-thiadiazol-2-yl)-N-(1-(fluoromethyl)cyclopropyl)-8-(4-hydroxy-4-methylpiperidin-1-yl)-[1,2,4]triazolo[4,3-a]pyridine-6-sulfonamide] | 15.9 µM (≈ 8.23 µg/mL) | 24.2 µM (≈ 12.5 µg/mL) | 500 to 5000 nM | 2.04 nM | 74 nM | < 100 nM | 513 nM | < 100 nM |
| CC1(NS(=O)(=O)c2cc(N3CCN(C(=O)C4CC4)CC3)c3cnc(-c4nnc(C(F)(F)F)s4)n3c2)COC1 [Example 175, 8-(4-(cyclopropanecarbonyl)piperazin-1-yl)-N-(3-methyloxetan-3-yl)-3-(5-(trifluoromethyl)-1,3,4-thiadiazol-2-yl)imidazo[1,5-a]pyridine-6-sulfonamide] | 21.5 µM (≈ 12.3 µg/mL) | 97.2 µM (≈ 55.6 µg/mL) | 565 nM | 18.2 nM | – | – | – | – |
| [2H]c1nc(-c2nnc(C(F)F)s2)n2cc(S(=O)(=O)NC3(C)COC3)cc(N3CCN(C(=O)C(C)C)CC3)c12 [Example 159, 3-(5-(difluoromethyl)-1,3,4-thiadiazol-2-yl)-8-(4-isobutyrylpiperazin-1-yl)-N-(3-methyloxetan-3-yl)imidazo[1,5-a]pyridine-6-sulfonamide-1-d] | 5.19 µM (≈ 2.89 µg/mL) | 17.4 µM (≈ 9.69 µg/mL) | – | 0.46 nM | 1.12 nM | < 100 nM | – | < 100 nM |
| CC1(C(=O)N2CCN(c3cc(S(=O)(=O)NC4(C#N)CC4)cn4c(-c5nnc(C(F)(F)F)s5)ncc34)CC2)CCCO1 (stereo not drawn) [Example 298, N-(1-cyanocyclopropyl)-8-(4-(2-methyltetrahydrofuran-2-carbonyl)piperazin-1-yl)-3-(5-(trifluoromethyl)-1,3,4-thiadiazol-2-yl)imidazo[1,5-a]pyridine-6-sulfonamide] | > 100 µM | 97.7 µM (≈ 59.7 µg/mL) | 175 nM | 19.1 nM | – | – | – | – |
| C[C@@H]1CN(c2cc(S(=O)(=O)NC3(CF)CC3)cn3c(-c4nnc(C(F)F)s4)nnc23)CCN1C(=O)C1(C)CC1 [Example 120, (R)-3-(5-(difluoromethyl)-1,3,4-thiadiazol-2-yl)-N-(1-(fluoromethyl)cyclopropyl)-8-(3-methyl-4-(1-methylcyclopropane-1-carbonyl)piperazin-1-yl)-[1,2,4]triazolo[4,3-a]pyridine-6-sulfonamide] | 81.8 µM (≈ 47.8 µg/mL) | 140 µM (≈ 81.9 µg/mL) | – | 1.49 nM | 2.28 nM | < 100 nM | – | < 100 nM |
